Like-named read-outs stand apart in the source and are kept apart here. Each block holds one molecule with its values, some of them ahead of it.
Columns and labels:
[1] = tested on: brain microvessel endothelial cells (BMEC); assay: prostaglandin E2 release from BMEC monolayers exposed to bacterial lipopolysaccharide; assay type: cell-based
Text: In an exemplary study primary cultured brain microvessel endothelial cells (BMEC) were used as an in vitro cell culture model to examine inflammation. These cells have been used previously to examine the effects of the inflammatory mediators such as tumor necrosis factor (TNF), and bacterial lipopolysaccharide (LPS). See Mark, K. S. and Miller, D. W. increased Permeability of Prim my Cultured Brain Microvessel Endothelial Cell Monolayers Following Tumor Necrosis Factor-Alpha Exposure. Life Sci. 64: 1941-1953, 1999, which is herein incorporated by reference in its entirety. See also Mark, K. S., Trickier, W. J., and Miller, D. W. Role of Cyclooxygenase-2 and Prostaglandins in the TNF-a Induced Changes in Brain Microvessel Endothelial Cell Permeability. J. Pharmacol. Exp. Ther. 297: I 051-1058, 200 I, which is herein incorporated by reference in its entirety. See also McGuire, T. R., Hoie, E., Trickier, […]., and Miller, D. W. Release of Prostaglandin E-2 in Bovine Brain Endothelial Cells After Exposure to Three Unique Forms of the Antifuingal Drug Amphotericin: Role of COX-2 in Amphotericin-Induced Fever. Life Sci. (accepted for publication), which is herein incorporated by reference in its entirety. These studies indicate that following exposure to either tumor necrosis factor (TNF) or bacterial lipopolysaccharide (LPS), there is an increased expression of cyclooxygenase 2 (COX 2). […] Treatment with bacterial lipopolysaccharide (LPS) alone caused significant increases in prostaglandin E2 (PGE2) release from the cells over the 12 hour exposure period (approximately 1a-fold increase over control).

[2] = tested on: C2Cl2 Muscle Cells; assay: accumulation (loading) of creatine in C2Cl2 muscle cells; assay type: cell-based, mouse; conditions: 3.2 mg/ml, up to 1 hour at 37 C
Text: (§1) Over this time period it was observed that here is a significant, approximately two-fold, increase in the “loading” of CEE in the muscle cells versus CM loading. FIGS. 13 through 15 exemplify the effects of this increased loading of CEE in the C2Cl2 cells under normal and hypoxic conditions. FIGS. 13 through 15 illustrate the results of studies of lactic acid levels in and lactic acid release from C2Cl2 muscle cells. […] The results were gathered over a six hour period of time.

[3] = biological target: T1, cyclooxygenase 2 (Homo sapiens, UniProt P35354); assay: direct inhibition of cyclooxygenase 2; conditions: at concentrations used in the current study
T1 sequence (P35354 18-604): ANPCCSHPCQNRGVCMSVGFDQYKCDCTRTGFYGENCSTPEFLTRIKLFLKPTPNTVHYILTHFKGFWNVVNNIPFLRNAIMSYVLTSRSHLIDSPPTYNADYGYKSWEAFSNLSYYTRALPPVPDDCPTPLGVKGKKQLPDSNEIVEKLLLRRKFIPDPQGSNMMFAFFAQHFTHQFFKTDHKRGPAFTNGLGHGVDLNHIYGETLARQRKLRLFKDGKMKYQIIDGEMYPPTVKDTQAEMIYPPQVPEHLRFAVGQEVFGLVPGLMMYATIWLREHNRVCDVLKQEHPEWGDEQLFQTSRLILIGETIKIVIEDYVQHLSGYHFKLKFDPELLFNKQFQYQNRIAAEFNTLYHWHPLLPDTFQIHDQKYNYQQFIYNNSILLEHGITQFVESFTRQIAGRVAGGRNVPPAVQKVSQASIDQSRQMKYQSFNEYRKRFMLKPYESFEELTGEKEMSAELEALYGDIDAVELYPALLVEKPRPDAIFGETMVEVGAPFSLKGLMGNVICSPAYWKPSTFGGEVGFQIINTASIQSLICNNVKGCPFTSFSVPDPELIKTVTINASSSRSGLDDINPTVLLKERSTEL

[4] = tested on: MDCK monolayers; conditions: dog, 1 h
[5] = tested on: C2Cl2 Muscle Cells; assay: lactic acid levels in and release from C2Cl2 muscle cells under normal and hypoxic conditions; assay type: cell-based, mouse; conditions: 100 uM, six hour period
Text: as §1

[6] = biological target: cyclooxygenase 1 (Homo sapiens, UniProt P23219); assay: direct inhibition of cyclooxygenase 1; conditions: at concentrations used in the current study
[7] = tested on: MDCK monolayers; assay: permeability (flux) across MDCK monolayers; conditions: over one hour
[8] = gastric pH range of 1-2; cited from earlier work
[9] = partition coefficient
[10] = of the administered dose; cited from earlier work
[11] = tested on: inflammatory responses produced by carrageenan, 5-hydroxytryptamine, nystatin and formaldehyde; conditions: oral; cited from earlier work

Chain of cyclooxygenase 1 (P23219 24-599, species assumed): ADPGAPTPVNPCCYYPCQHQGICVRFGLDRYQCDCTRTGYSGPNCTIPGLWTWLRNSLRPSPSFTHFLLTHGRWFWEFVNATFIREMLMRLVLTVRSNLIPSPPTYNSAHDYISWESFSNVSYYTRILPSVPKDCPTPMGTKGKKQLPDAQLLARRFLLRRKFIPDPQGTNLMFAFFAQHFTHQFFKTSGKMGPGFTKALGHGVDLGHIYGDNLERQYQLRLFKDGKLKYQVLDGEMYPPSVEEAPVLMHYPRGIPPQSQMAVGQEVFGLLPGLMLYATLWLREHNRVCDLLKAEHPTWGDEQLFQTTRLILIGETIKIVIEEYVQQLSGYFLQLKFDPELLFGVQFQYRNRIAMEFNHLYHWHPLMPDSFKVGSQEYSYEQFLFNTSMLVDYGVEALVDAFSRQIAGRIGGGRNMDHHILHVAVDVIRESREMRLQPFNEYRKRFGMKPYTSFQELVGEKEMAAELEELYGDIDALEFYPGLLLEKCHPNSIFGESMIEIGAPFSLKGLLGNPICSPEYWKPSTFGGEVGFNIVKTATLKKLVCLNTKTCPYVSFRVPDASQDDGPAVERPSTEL

- increase in loading in muscle cells versus CM loading [2]: approximately two-fold
- flux across MDCK monolayer [4]: approximately 20%
SMILES: CCOC(=O)CN(C)C(=N)N [creatine ethyl ester]
- magnitude of PGE2 response compared with indomethacin (10 μM) ([1]; 100 μM): similar
- direct inhibition of cyclooxygenase 2 [3]: have not presently revealed an inhibition
- cellular lactic acid levels [5]: marked reduction
- lactic acid release [5]: marked reduction
- direct inhibition of cyclooxygenase 1 [6]: have not presently revealed an inhibition

SMILES: CN(CC(=O)O)C(=N)N [creatine monohydrate]
- magnitude of PGE2 response compared with indomethacin (10 μM) ([1]; 1000 μM): similar
- concentration giving maximal reduction in PGE2 release ([1]; LPS 20 ng/ml, 12 hour exposure): at least 1000 μM
- lowest concentration with reduction in PGE2 release ([1]; LPS 20 ng/ml, 12 hour exposure): 100 µM
- flux across MDCK monolayer [7]: approximately 10%
- direct inhibition of cyclooxygenase 2 ([3]; monohydrate): have not presently revealed an inhibition
- direct inhibition of cyclooxygenase 1 ([6]; monohydrate): have not presently revealed an inhibition

SMILES: CCOC(=O)CN(C)C(=N)N.Cl [creatine ethyl ester hydrochloride, Creatine Ethyl Ester Hydrochloride]
- concentration giving maximal reduction in PGE2 release ([1]; LPS 20 ng/ml, 12 hour exposure): 100 µM
- lowest concentration with reduction in PGE2 release ([1]; LPS 20 ng/ml, 12 hour exposure): 10 µM
- effect on prostaglandin E2 (PGE2) release following LPS exposure ([1]; LPS 20 ng/ml, 12 hour exposure, co-administration): significantly reduced

SMILES: CN(CC(=O)O)C(=N)N [creatine]
- creatinine/creatine ratio [8]: greater than or equal to 30
- Partition [9]: 0.015 +/− 0.007
- direct inhibition of cyclooxygenase 2 [3]: does not inhibit
- total estimated oral absorption [10]: ≤ 14%
- direct inhibition of cyclooxygenase 1 [6]: does not inhibit
- suppression of experimentally induced inflammatory responses [11]: orally effective

From US10206897B2 (Board of Regents of the University of Nebraska, priority 2000, dated 2019)
